Experimental data: patent publication US20250346600A1, “TRICYCLIC DERIVATIVES AND RELATED USES” (MOMA Therapeutics, Inc., priority 2023, published 2025)

How the values were obtained:
[1] = target: T1, Full length WRN protein (aa 2-1432) (Homo sapiens (Human), UniProt Q14191); assay: WRN ATPase ADP-Glo biochemical assay, Assay Format A (10 μM ATP); details: 0.25 nM WRN, 100 nM C6.18 ssDNA, 30 min preincubation, read-out: ATPase ADPGlo AC50 (uM)- Assay Format A
Description: Full length Werner helicase construct (Uniprot: Q14191) with an N-terminal FLAG-AVI-TEV tag was expressed using the Sf9 cell/baculovirus expression system. The harvested cell pellet was resuspended and lysed in a glass homogenizer. After insoluble material was removed by centrifugation, the helicase protein was first purified with FLAG affinity resin and then further purified through a size-exclusion chromatography column. Peak fractions containing the purified protein were concentrated, split into aliquots and frozen in liquid nitrogen to be thawed before use. Biochemical Assay Description (ATPase activity)-Assay Format A WRN activity was measured using an ATPase assay. Full length WRN protein (aa 2-1432) (production described separately) was used for the biochemical activity assays. The 39-mer ssDNA “C6.18” [NT] was purchased from IDT and used as a substrate. Quantification of ATP hydrolysis was evaluated using the ADP-Glo assay kit (Promega, Madison, WI). An enzyme titration time-course was performed to determine the optimal assay conditions. […] To evaluate the inhibitory effects of the compounds, 11-point 3-fold serial dilutions were prepared in DMSO. 50 nL of each concentration in duplicate was preincubated for 30 minutes in a 384-well microplate (Greiner #784075) with 5 μL of 0.5 nM WRN in assay buffer. The reaction was initiated by adding 5 μL of 200 nM C6.18 DNA with 20 μM ATP and was allowed to proceed for 30 minutes at room temperature. The reaction was stopped with 10 μL ADP-Glo reagent for 1 hour to remove unreacted ATP. Lastly, 20 μL ATP detection reagent was added and incubated for 1 hour to generate the luminescence signal. Control wells included “high controls” with no inhibition (DMSO, no compound) and “low controls” with maximum inhibition (no WRN). Luminescence was recorded on a PHERAstar (BMG Labtech, Ortenberg, Germany). Data was fit using the “Smart Fit” method within the Genedata Screener Software (Basel, Switzerland) to obtain IC50 values using four-parameter fits. Reported IC50s are the geometric means of at least two independent trials.

[2] = target: T1, Full length WRN protein (aa 2-1432); assay: WRN ATPase ADP-Glo biochemical assay, Assay Format B (100 μM ATP); details: 0.25 nM WRN, 100 nM C6.18 ssDNA, 60 min preincubation, read-out: ATPase ADPGlo AC50 (uM)- Assay Format B
HCT116 cells = assay: HCT116 (MSI) 7 day viability, CellTiter Glo; assay type: cell-based; details: Homo sapiens, HCT-116, 168 h, 7 days, read-out: HCT116 (MSI) Viability 7 Day Abs AC50
In short: (§1)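 Seven-day viability is assessed with CellTiter Glo after compounds, diluted in ten 3-fold steps in DMSO, are exposed to HCT116 (50 cells/well) or HT29 (500 cells/well). Reported IC50 is the geometric mean of at least two independent runs.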

HT29 cells = assay: HT29 (MSS) 7 day viability, CellTiter Glo; assay type: cell-based; details: Homo sapiens, HT-29, 168 h, 7 days, read-out: HT29 (MSS) Viability 7 Day CTGAbs AC50
In short: as §1

T1 sequence (Q14191 2-1432): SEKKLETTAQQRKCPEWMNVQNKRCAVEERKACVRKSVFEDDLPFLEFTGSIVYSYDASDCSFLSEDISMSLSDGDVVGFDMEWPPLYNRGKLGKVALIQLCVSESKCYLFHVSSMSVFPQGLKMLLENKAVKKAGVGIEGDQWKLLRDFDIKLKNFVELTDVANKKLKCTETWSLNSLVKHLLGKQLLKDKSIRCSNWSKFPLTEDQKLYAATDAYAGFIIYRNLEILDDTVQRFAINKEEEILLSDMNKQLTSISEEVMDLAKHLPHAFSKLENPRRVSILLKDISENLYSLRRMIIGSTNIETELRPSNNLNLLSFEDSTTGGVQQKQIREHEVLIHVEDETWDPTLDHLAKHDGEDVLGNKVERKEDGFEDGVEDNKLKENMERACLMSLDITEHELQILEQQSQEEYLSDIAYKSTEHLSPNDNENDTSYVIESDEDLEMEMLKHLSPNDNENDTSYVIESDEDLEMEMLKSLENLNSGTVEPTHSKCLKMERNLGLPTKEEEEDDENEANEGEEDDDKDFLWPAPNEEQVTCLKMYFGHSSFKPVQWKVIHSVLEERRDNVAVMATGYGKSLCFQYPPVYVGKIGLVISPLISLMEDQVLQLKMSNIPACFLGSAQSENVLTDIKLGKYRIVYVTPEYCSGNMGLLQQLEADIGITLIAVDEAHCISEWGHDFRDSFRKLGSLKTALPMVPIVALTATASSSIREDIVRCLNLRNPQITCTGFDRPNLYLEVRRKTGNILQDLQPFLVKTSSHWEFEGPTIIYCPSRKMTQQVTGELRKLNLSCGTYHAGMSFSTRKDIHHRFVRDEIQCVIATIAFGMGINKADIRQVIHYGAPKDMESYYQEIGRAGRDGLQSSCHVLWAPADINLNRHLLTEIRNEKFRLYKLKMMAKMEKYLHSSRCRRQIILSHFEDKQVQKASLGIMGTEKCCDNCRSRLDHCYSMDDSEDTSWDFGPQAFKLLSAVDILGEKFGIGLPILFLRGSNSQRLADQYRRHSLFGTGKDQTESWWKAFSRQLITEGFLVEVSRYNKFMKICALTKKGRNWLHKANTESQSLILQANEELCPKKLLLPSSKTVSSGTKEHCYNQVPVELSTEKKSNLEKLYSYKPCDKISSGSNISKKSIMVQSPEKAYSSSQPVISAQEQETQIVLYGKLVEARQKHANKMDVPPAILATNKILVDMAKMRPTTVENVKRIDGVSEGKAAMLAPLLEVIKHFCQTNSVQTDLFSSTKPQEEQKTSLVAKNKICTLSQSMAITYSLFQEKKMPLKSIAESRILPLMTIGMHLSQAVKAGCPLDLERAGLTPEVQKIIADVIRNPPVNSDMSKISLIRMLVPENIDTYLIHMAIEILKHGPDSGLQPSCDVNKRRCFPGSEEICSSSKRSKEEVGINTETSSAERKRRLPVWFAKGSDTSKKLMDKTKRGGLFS

Compound	AC50 [1] [µM]	AC50 [2] [µM]	AC50 (HCT116 cells) [nM]	AC50 (HT29 cells) [nM]
C=CC(=O)N1CCc2nn(-c3ccc(C4CC4)cc3)c3c2C(C1)N(C(=O)c1cnc(C(F)(F)F)c(O)c1)CC3 (stereo not shown) [Compound 1, 1-(2-(4-cyclopropylphenyl)-5-(5-hydroxy-6-(trifluoromethyl)nicotinoyl)-2,3,4,5,5a,6,8,9-octahydro-7H-1,2,5,7-tetraazabenzo[cd]azulen-7-yl)prop-2-en-1-one]	0.0015 to 0.005	0.015 to 0.055	100 to 250	> 3000
C=CC(=O)N1CCc2nn(-c3ccc(CC(F)(F)F)cc3O)c3c2C(C1)N(C(=O)c1ccc(Br)c2[nH]cnc12)CC3 (stereo not shown) [Compound 2, 1-(5-(7-bromo-1H-benzo[d]imidazole-4-carbonyl)-2-(2-hydroxy-4-(2,2,2-trifluoroethyl)phenyl)-2,3,4,5,5a,6,8,9-octahydro-7H-1,2,5,7-tetraazabenzo[cd]azulen-7-yl)prop-2-en-1-one]	< 0.0015	0.005 to 0.015	1 to 100	> 3000
C=CC(=O)N1CCc2nn(-c3ccc(C(F)(F)F)cc3O)c3c2C(C1)N(C(=O)c1ccc(Br)c2[nH]cnc12)CC3 (stereo not shown) [Compound 3, 1-(5-(7-bromo-1H-benzo[d]imidazole-4-carbonyl)-2-(2-hydroxy-4-(trifluoromethyl)phenyl)-2,3,4,5,5a,6,8,9-octahydro-7H-1,2,5,7-tetraazabenzo[cd]azulen-7-yl)prop-2-en-1-one]	0.0015 to 0.005	0.015 to 0.055	1 to 100	> 3000
C=CC(=O)N1CCc2nn(-c3ccc(C45CC(C4)C5)cc3)c3c2C(C1)N(C(=O)c1ccc(Br)c2[nH]cnc12)CC3 (stereo not shown) [Compound 4, 1-(2-(4-(bicyclo[1.1.1]pentan-1-yl)phenyl)-5-(7-bromo-1H-benzo[d]imidazole-4-carbonyl)-2,3,4,5,5a,6,8,9-octahydro-7H-1,2,5,7-tetraazabenzo[cd]azulen-7-yl)prop-2-en-1-one]	< 0.0015	0.015 to 0.055	1 to 100	> 3000
C=CC(=O)N1CCc2nn(-c3ccc(C4CC4)cc3O)c3c2C(C1)N(C(=O)c1ccc(Br)c2[nH]cnc12)CC3 (stereo not shown) [Compound 5, 1-(5-(7-bromo-1H-benzo[d]imidazole-4-carbonyl)-2-(4-cyclopropyl-2-hydroxyphenyl)-2,3,4,5,5a,6,8,9-octahydro-7H-1,2,5,7-tetraazabenzo[cd]azulen-7-yl)prop-2-en-1-one]	< 0.0015	0.005 to 0.015	1 to 100	> 3000
C=CC(=O)N1CCc2nn(-c3ccc(C4CCC4(F)F)cc3O)c3c2C(C1)N(C(=O)c1ccc(Br)c2[nH]cnc12)CC3 (stereo not shown) [Compound 6, 1-(5-(7-bromo-1H-benzo[d]imidazole-4-carbonyl)-2-(4-(2,2-difluorocyclobutyl)-2-hydroxyphenyl)-2,3,4,5,5a,6,8,9-octahydro-7H-1,2,5,7-tetraazabenzo[cd]azulen-7-yl)prop-2-en-1-one]	0.0015 to 0.005	0.015 to 0.055	1 to 100	> 3000
C=CC(=O)N1CCc2nn(-c3ccc(C(C)C)cc3)c3c2C(C1)N(C(=O)c1ccc(Br)c2[nH]cnc12)CC3 (stereo not shown) [Compound 7, 1-(5-(7-bromo-1H-benzo[d]imidazole-4-carbonyl)-2-(4-isopropylphenyl)-2,3,4,5,5a,6,8,9-octahydro-7H-1,2,5,7-tetraazabenzo[cd]azulen-7-yl)prop-2-en-1-one]	< 0.0015	0.005 to 0.015	1 to 100	> 3000
C=CC(=O)N1CCc2nn(-c3ccc(C(C)C)cc3)c3c2C(C1)N(C(=O)c1ccc(Br)c2[nH]c(N)nc12)CC3 (stereo not shown) [Compound 8, 1-(5-(2-amino-7-bromo-1H-benzo[d]imidazole-4-carbonyl)-2-(4-isopropylphenyl)-2,3,4,5,5a,6,8,9-octahydro-7H-1,2,5,7-tetraazabenzo[cd]azulen-7-yl)prop-2-en-1-one]	< 0.0015	0.005 to 0.015	1 to 100	> 3000
C=CC(=O)N1CCc2nn(-c3ccc(C(C)C)cc3)c3c2C(C1)N(C(=O)c1ccc(Br)c2[nH]c(N4CCC4)nc12)CC3 (stereo not shown) [Compound 9, 1-(5-(2-(azetidin-1-yl)-7-bromo-1H-benzo[d]imidazole-4-carbonyl)-2-(4-isopropylphenyl)-2,3,4,5,5a,6,8,9-octahydro-7H-1,2,5,7-tetraazabenzo[cd]azulen-7-yl)prop-2-en-1-one]	0.0015 to 0.005	0.015 to 0.055	1 to 100	> 3000
C=CC(=O)N1CCc2nn(-c3ccc(C(C)C)cc3)c3c2C(C1)N(C(=O)c1ncc(Br)c2[nH]cnc12)CC3 (stereo not shown) [Compound 10, 1-(5-(7-bromo-1H-imidazo[4,5-c]pyridine-4-carbonyl)-2-(4-isopropylphenyl)-2,3,4,5,5a,6,8,9-octahydro-7H-1,2,5,7-tetraazabenzo[cd]azulen-7-yl)prop-2-en-1-one]	< 0.0015	0.015 to 0.055	1 to 100	> 3000
C=CC(=O)N1CCc2nn(-c3ccc(C(C)C)cc3)c3c2C(C1)N(C(=O)c1cnc(C(F)(F)F)c(OC)c1)CC3 (stereo not shown) [Compound 12, 1-(2-(4-isopropylphenyl)-5-(5-methoxy-6-(trifluoromethyl)nicotinoyl)-2,3,4,5,5a,6,8,9-octahydro-7H-1,2,5,7-tetraazabenzo[cd]azulen-7-yl)prop-2-en-1-one]	< 0.0015	0.015 to 0.055	1 to 100	> 3000
C=CC(=O)N1CCc2nn(-c3ccc(C(C)C)cc3)c3c2C(C1)N(C(=O)c1ccc(C(F)(F)F)nc1)CC3 (stereo not shown) [Compound 13, 1-(2-(4-isopropylphenyl)-5-(6-(trifluoromethyl)nicotinoyl)-2,3,4,5,5a,6,8,9-octahydro-7H-1,2,5,7-tetraazabenzo[cd]azulen-7-yl)prop-2-en-1-one]	0.0015 to 0.005	0.015 to 0.055	100 to 250	> 3000
C=CC(=O)N1CCc2nn(-c3ccc(C(C)C)cc3)c3c2C(C1)N(C(=O)c1cnc(C(F)(F)F)c(O)c1)CC3 (stereo not shown) [Compound 14, 1-(5-(5-hydroxy-6-(trifluoromethyl)nicotinoyl)-2-(4-isopropylphenyl)-2,3,4,5,5a,6,8,9-octahydro-7H-1,2,5,7-tetraazabenzo[cd]azulen-7-yl)prop-2-en-1-one]	0.0015 to 0.005	0.015 to 0.055	1 to 100	> 3000
C=CC(=O)N1CCc2nn(-c3ccc(C4CCC4)cc3O)c3c2C(C1)N(C(=O)c1cnc(Br)c2[nH]cnc12)CC3 (stereo not shown) [Compound 137, 1-(5-(4-bromo-3H-imidazo[4,5-c]pyridine-7-carbonyl)-2-(4-cyclobutyl-2-hydroxyphenyl)-2,3,4,5,5a,6,8,9-octahydro-7H-1,2,5,7-tetraazabenzo[cd]azulen-7-yl)prop-2-en-1-one]	< 0.0015		1 to 100	> 3000
C=CC(=O)N1CCc2nn(-c3ccc(C4CCC4)cc3O)c3c2C(C1)N(C(=O)c1cnc(C(F)(F)F)c2[nH]ncc12)CC3 (stereo not shown) [Compound 151, 1-(2-(4-cyclobutyl-2-hydroxyphenyl)-5-(7-(trifluoromethyl)-1H-pyrazolo[3,4-c]pyridine-4-carbonyl)-2,3,4,5,5a,6,8,9-octahydro-7H-1,2,5,7-tetraazabenzo[cd]azulen-7-yl)prop-2-en-1-one]	< 0.0015		1 to 100	> 3000
C=CC(=O)N1CCc2nn(-c3ccc(C4CCC4)cc3O)c3c2C(C1)N(C(=O)c1ncc(C(F)(F)F)c2[nH]cnc12)CC3 (stereo not shown) [Compound 154, 1-(2-(4-cyclobutyl-2-hydroxyphenyl)-5-(7-(trifluoromethyl)-1H-imidazo[4,5-c]pyridine-4-carbonyl)-2,3,4,5,5a,6,8,9-octahydro-7H-1,2,5,7-tetraazabenzo[cd]azulen-7-yl)prop-2-en-1-one]	< 0.0015		1 to 100	> 3000
C=CC(=O)N1CCc2nn(-c3ccc(C(C)C)cc3)c3c2C(C1)N(C(=O)C1CC1)CC3 (stereo not shown) [Compound 170, 1-(5-(cyclopropanecarbonyl)-2-(4-isopropylphenyl)-2,3,4,5,5a,6,8,9-octahydro-7H-1,2,5,7-tetraazabenzo[cd]azulen-7-yl)prop-2-en-1-one]	> 0.055		> 1000	> 3000
